Experimental data taken from US12616667B2, “Compositions and methods for improving neurological diseases and disorders” (CURASEN THERAPEUTICS, INC., priority 2021, dated 2026).
“Also recorded” adds a separate entry of the source.

Experiments:
[1] = system: healthy subjects; test: Heart rate by triplicate ECG after Compound 03-5 with or without nadolol; format: in vivo, human; settings: 6 mg Compound 03-5 with pre-administration of 1 mg nadolol
Method: FIGS. 11A-11B show the effects of Compound 03-5 monotherapy (6 mg) on heart rate (FIG. 11A) and administered 2 hours after nadolol (1-40 mg) (FIG. 11B). Heart rate was measured by triplicate ECG recordings. Data are presented as means changes from time-matched measures recorded on the day before the first dose of study drug (Day −1).
Healthy volunteers were be enrolled into 2 cohorts in a study to undertake within-subject dose titration of Compound 03-5 and/or nadolol in order to explore doses/dose combinations that mitigate peripheral effects of Compound 03-5, e.g. on heart rate, while preserving possible central effects of Compound 03-5 on cerebral perfusion and pupillary light reflex.
Cohort D1 enrolled 8 healthy subjects and undertook an evaluation of the effects of treatment on ECG following repeat dosing of Compound 03-5 in the presence of escalating doses of nadolol according to following schematic.
Eight healthy subjects aged 18-50 years were enrolled into Cohort D1 and received escalating doses of Compound 03-5 (3-12 mg) administered once daily 2 hours follow pre-administration of nadolol (1-40 mg). On all dosing days, study drug(s) were administered orally after an overnight fast of at least 8 hours. […]

[2] = system: healthy subjects; test: Peripheral effects of Compound 03-5 (glucose, potassium, tachycardia, tremor, palpitations) with nadolol; format: in vivo, human
Method: Data are presented as individual observations for all available subjects.
Eight healthy subjects aged 18-50 years were enrolled into Cohort D1 and received escalating doses of Compound 03-5 (3-12 mg) administered once daily 2 hours follow pre-administration of nadolol (1-40 mg). On all dosing days, study drug(s) were administered orally after an overnight fast of at least 8 hours.
Routine measures of ECG, vital signs, safety labs, physical exams and plasma sample collections for analysis of drug pharmacokinetics (PK) were undertaken according to the Schedule of Events (Table 1).
(§1) In Cohort D2, 8 healthy volunteers aged 55-75 years were admitted on Day −1 for a 5-day confinement period at the research facility. During this confinement, subjects received escalating doses of open label Compound 03-5 (1-10 mg) once-daily from Day 1 through Day 3 2 hours after pre-administration of open-label nadolol (3 mg) one each for the 3 dosing days according to the following schematic. Subjects remained in-residency until all study procedures are completed on Day 4.

[3] = system: healthy volunteers aged 55-75 years; test: CANTAB cognition battery, Cohort D2; format: in vivo, human; settings: Compound 03-5 1, 3, 10 mg on Days 1-3, 2 hours after nadolol 3 mg
Method: CANTAB data from healthy adults 55-75 years of age (N=4) who received once-daily 3 mg nadolol and Compound 03-5 (1, 3, and 10 mg) on Day1, Day 2 and Day 3. […] Data are presented as mean changes from the within-day pre-dose assessment.
as §1
? Compound 03-5 dose administration. Compound 03-5 was administered as escalating doses on Day 1 (1 mg), Day 2 (3 mg) and Day 3 (10 mg). CANTAB was conducted twice in all subjects on the day prior to start of dosing (Day −1) to familiarize subjects with the platform, and prior to dosing and approximately 3 hours after Compound 03-5 administration on Days 1, 2, and 3.

[4] = system: Ts65Dn mice; settings: increasing brain NE levels; cited from earlier work
[5] = system: patients; test: Cerebral blood flow relative to baseline after a single dose (Example 1); format: in vivo, human
[6] = system: healthy subjects; test: ASL MRI cerebral perfusion before and after a single dose (Example 3); format: in vivo, human
Method: In a clinical study, healthy subjects were administered doses of clenbuterol ranging from 20 to 160 μg and ASL MRI was conducted prior to and after dosing with an objective to ascertain whether this neuroimaging method enables the detection of a clinically relevant CNS signal.
In a region of interest (ROI) analysis focusing on the hippocampus, which is well understood to be affected in neurodegenerative disorders, a single dose of 80 μg of clenbuterol causes a robust increase in perfusion (see FIG. 7). […] Taken together with other cohorts in which ASL MRI was conducted, a clear dose response relationship is seen between dose of clenbuterol and cerebral perfusion (FIG. 8). […] Our hypothesis is that by improving cerebral perfusion, particularly in areas of the brain that are relevant for symptoms that are commonly found in neurodegenerative diseases such as PD and AD, the administration of a β-AR agonist (such as a β-agent) will have a positive effect on clinically relevant symptoms such as memory and cognition.

[7] = system: healthy subjects; test: Adaptive tracking test (visuomotor coordination and vigilance); format: in vivo, human; settings: single dose 160 μg clenbuterol
Text: Adaptive tracking measures visuomotor coordination and vigilance. In this test, the subject uses a joystick to move a small dot so that it stays within a continuously moving circle on a computer screen (Boland 1984). During the test, the speed of the circle is adjusted in response to the subject's ability to keep the dot in the circle, ensuring that the test is adapted to the individual subject. […] The improvement shown by subjects is in the same range as that seen with subjects treated with the acetylcholinesterase inhibitor donepezil, which is in clinical use for the treatment of mild to moderate AD (Groeneveld 2016).

[8] = system: subjects; test: Visual verbal learning test (VVLT); format: in vivo, human; settings: for effect on VVLT performance: crossover study, 3 agents plus placebo
Method: Subjects are presented 30 words on a screen, one at a time, for 1 second with a 1-second interval between words over a total of 1 minute. This is repeated in 3 trials. After each trial, subjects are asked to recall as many words as they can. After the third trial, there is a delay of 2.5 hours and subjects are then tested once for delayed recall. […] Since this was a crossover study, everyone who completed Part A was dosed with the 3 agents plus placebo.

[9] = doses of 80 and 160 μg clenbuterol

CC(C)(C)NC[C@H](O)c1cccc(C#N)n1 [Compound 03-5, (S)-6-(2-(tert-butylamino)-1-hydroxyethyl)picolinonitrile]
mean maximum increase in heart rate [1]: 7 beats per minute | hypokalemia (blood potassium levels) ([2]; Compound 03-5 monotherapy 0.3 mg-6 mg, Cohorts A1-A5): Dose-dependent increases in hypokalemia | performance in the CANTAB cognition battery [3]: improvements in cognition; also recorded: improvements in performance

N[C@H](C(=O)O)[C@H](O)c1ccc(O)c(O)c1 [L-DOPS, L-threo-3,4-dihydroxyphenylserine]
contextual learning [4]: restored contextual learning

CC(C)(C)NCC(O)c1cc(Cl)c(N)c(Cl)c1 (stereo not shown) [clenbuterol]
cerebral blood flow (CBF) relative to baseline ([5]; single dose clenbuterol 160 μg): robust global increase; also recorded: positive increase | cerebral blood flow (CBF) relative to baseline ([5]; single dose clenbuterol 160 μg and nadolol 5 mg): robust global increase | cerebral blood flow (CBF) relative to baseline ([5]; single dose clenbuterol ranging from 30 to 160 μg, tracked over 3 days): robust global increase | cerebral perfusion increase as measured by CBF ([6]; clenbuterol dose of 40 μg): minimal increase | cerebral perfusion increase as measured by CBF ([6]; clenbuterol doses below 30 μg): do not produce significant cerebral perfusion increases | improvements in perfusion in brain areas relevant to neuropathology of neurodegenerative disorders [6, 9]: ~25% | increases in cerebral perfusion in hippocampus and thalamus [6, 9]: 20% to 25 | increase in hippocampal perfusion, average ([6]; single dose 80 μg clenbuterol, 6 healthy subjects aged 44-52, hippocampus ROI): 25% | cerebral perfusion, change from baseline ([6]; single dose 160 μg clenbuterol, global, in particular hippocampus, thalamus, cortex): global increase in cerebral perfusion; also recorded: robust global increase | performance in adaptive tracking (percent time dot kept within moving circle) [7]: improved adaptive tracking; also recorded: improves | cognition as measured by adaptive tracking and word recall ([7]; healthy subjects, preliminary data): improves cognition | effect on VVLT performance [8]: positive effects | effect on VVLT performance ([8]; listed as Clenbuterol): improved performance | VVLT improvement in correctly recalled words ([8]; immediate recall (Trial 1) and delayed recall, crossover study vs placebo): 1.5 to 2 correctly recalled words

CC(C)(C)NCC(O)COc1cccc2c1CC(O)C(O)C2 (stereo not shown) [nadolol]
peripheral effects of Compound 03-5 on heart rate, glucose, potassium, tachycardia, tremor and palpitations ([2]; Cohort D1, pre-administered nadolol 1 mg up to 40 mg, Compound 03-5 3-12 mg): blocked the peripheral effects | effects of Compound 03-5 to increase heart rate and other peripheral effects including hyper glycemia and hypokalemia ([2]; Cohort D1, pre-administration of 1 mg nadolol, Compound 03-5 orally up to 6 mg): substantially attenuated | peripheral effects of Compound 03-5 on heart rate, etc. ([2]; Cohort D2, pre-administered nadolol 3 mg, Compound 03-5 1-10 mg): similarly blocked the peripheral effects | effects of Compound 03-5 on blood glucose and potassium, tachycardia, tremor and palpitations ([2]; pre-administration of 1 mg nadolol): Concomitant attenuation | hypokalemia caused by Compound 03-5 (blood potassium levels) ([2]; subjects dosed with nadolol 1-40 mg, Cohorts D1 and D2): attenuation of hypokalemia

CC(C)NCC(O)COc1cccc2[nH]ccc12 (stereo not shown) [pindolol]
effect on VVLT performance [8]: detrimental effect

CC(C)(C)NCC(O)c1ccc(O)c(CO)c1 (stereo not shown) [salbutamol]
effect on VVLT performance [8]: positive effects
